The values that follow come from patent US8703792B2, “C-1 analogs of pancratistatin and 7-deoxypancratistatin and processes for their preparation” (Brock University, priority 2008, dated 2014).

One series deals with leukemia P388. In words: Cancer cell line growth inhibition, leukemia P388. Conditions: Mus musculus, read-out: Inhibitory Activities: IC50, leukemia P388. It is filed as cell-based, murine.
The subject of series [1] is human pancreatic adenocarcinoma cancer cell line BxPC-3. In words: MTT assay, pancreas BxPC-3. Format: cell-based. Conditions: 48 hrs, read-out: Inhibitory Activities: IC50, pancreas BxPC-3. Here is the method:
(§1) Human non-small cell lung cancer line NCI-H460 (ATCC # HTB-177) and human pancreatic adenocarcinoma cancer cell line BxPC-3 (ATCC # CRL-1687) were cultured in RPMI-1640 medium supplemented with 10% fetal bovine serum (FBS) (Gibco, Carlsbad, Calif.), 100 mg/L penicillin G and 100 mg/L streptomycin and (Cellgro, Manassas, Va.). Human prostate carcinoma cells DU-145 (ATCC # HTB-81) were cultured in Dulbecco's modified Eagle Medium (Cellgro) supplemented with 10% FBS, 100 mg/L penicillin G and 100 mg/L streptomycin. Human mammary carcinoma cells MCF-7 (ATCC # HTB-22) were cultured using Dulbecco's modified Eagle Medium supplemented with 10% FBS, 100 mg/L penicillin G, 100 mg/L streptomycin, 1.0 mM Glutamax and 1.0 mM sodium pyruvate, (Gibco).
(§2) In addition, the BxPC-3, […], DU-145 and MCF-7 lines were assessed by seeding 4×10^3 cells per well into microplates. The cells were grown for 24 hrs before treatment at concentrations ranging from 0.01 to 10 μM and incubated for 48 hrs. MTT reagent (5 mg/mL, MP Biomedical, Solon, Ohio) was added to each well and incubated further for 2 hrs. The resulting formazan crystals were dissolved in DMSO and the OD was determined at a wavelength of 490 nm. The experiments were repeated at least twice for each compound per cell line. Cells treated with 0.1% DMSO were used as a control.
For orientation: Tetrazolium assays rely on reduction of a dye to a coloured formazan, in cell work by metabolically active cells.

The test system of series [2] is Human mammary carcinoma cells MCF-7. The series can be described thus: MTT assay, breast MCF-7. To be noted: MCF7, 48 hrs, read-out: Inhibitory Activities: IC50, breast MCF-7. It is filed as cell-based. Here is the method:
as §1, §2

The test system of the next series is CNS SF-268. In words: Cancer cell line growth inhibition, CNS SF-268. Format: cell-based. Conditions: Homo sapiens, read-out: Inhibitory Activities: IC50, CNS SF-268.
Series [3] concerns Human non-small cell lung cancer line NCI-H460. In words: MTT assay, lung-NSC NCI-H460. Format: cell-based. To be noted: 48 hrs, read-out: Inhibitory Activities: IC50, lung-NSC NCl-H460. The method, then: as §1, §2
A further series deals with colon KM20L2. The series can be described thus: Cancer cell line growth inhibition, colon KM20L2. It is filed as cell-based. To be noted: Homo sapiens, KM-20L2; read-out: Inhibitory Activities: IC50, colon KM20L2.
Series [4] relates to Human prostate carcinoma cells DU-145. In words: MTT assay, prostate DU-145. Format: cell-based. To be noted: 48 hrs, read-out: Inhibitory Activities: IC50, prostate DU-145. Here is the method: as §1, §2
Series [5] relates to B-cell leukemia (Jurkat) cell line. The series can be described thus: MTT assay, leukemia Jurkat. It is filed as cell-based. To be noted: Homo sapiens, read-out: Inhibitory Activities: IC50, leukemia Jurkat. Here is the method:
(§3) The Human neuroblastoma (SH-SY5Y) and B-cell leukemia (Jurkat) cell lines were purchased from ATCC (Manassas, Va.). Cells were maintained and grown at 37° C., 95% humidity and 5% CO2. Jurkat cells were grown with RPMI-1640 media (Sigma-Aldrich, Oakville, ON, Canada) supplemented with 10% fetal bovine serum (FBS) and 10 mg/ml Gentamycin (Gibco BRL, Mississauga, ON, Canada). SH-SY5Y cells were grown with Dulbecco's Modified Eagles Medium (DMEM) HAM F12 (Sigma-Aldrich), supplemented with 2 mM L-Glutamine, 10 mg/ml Gentamycin, and 10% FBS. Normal Human Fibroblasts (NHFs) obtained from Coriell Institute for Medical Research (New Jersey, USA) were cultured in Earle's Minimum Essential Medium (MEME) (Sigma Chemical Company, Mississauga, Ontario, Canada) completed with 15% fetal bovine serum, 2 mM L-Glutamine, 10 mg/ml Gentamycin, 1.5 g/l sodium bicarbonate, 1% vitamins, and essential (2%) and non-essential amino acids (1%) (Gibco BRL, VWR, Mississauga, ON, Canada).
(§4) To evaluate the cytotoxic effects of the C-1 derivatives of 7-deoxypancratistatin, mitochondrial dehydrogenase activities were measured. Jurkat and SH-SY5Y cells were grown and treated for 24, 48, and 72 hrs. Cells were treated with concentrations ranging from 0.25 to 10 μM of each derivative dissolved in DMSO Similarly, ncPBMCs and NHFs were treated to assess the effects of the C-1 derivatives on non-cancerous cells.

The subject of series [6] is Human neuroblastoma (SH-SY5Y) cell line. The series can be described thus: MTT assay, neuroblastoma SH-SY5Y. Conditions: read-out: Inhibitory Activities: IC50, neuroblastoma Shsy5y. It is filed as cell-based. Here is the method: as §3, §4
Another series concerns Jurkat cells. The series can be described thus: Apoptosis induction (Hoechst staining, Annexin-V binding) in Jurkat cells. It is filed as cell-based, human. To be noted: for Apoptotic morphology: 72 hours treatment, Hoechst staining and Annexin-V binding; for EC50: Homo sapiens, 72 hrs exposure, Hoechst staining, read-out: effective dose at which 50% of cells were apoptotic (ED50). Here is the method: as §3
(§5) Nuclear morphology was visualized using a final concentration of 10 μM of Hoechst 33342 dye (Molecular Probes, Eugene, Oreg., USA). Phosphatidyl serine flipping, (an apoptotic biochemical marker) was visualized with Annexin-V-FITC binding assay as per manufacturer's protocol (Molecular Probes, Eugene Oreg., USA). […] Apoptotic cells were expressed as a percentage of the total number of cells counted. Standard error was calculated from at least 3 separate experiments.

The test system of another series is SH-SY5Y cells. The series can be described thus: Apoptosis induction (Hoechst staining, Annexin-V binding) in SH-SY5Y cells. It is filed as cell-based, human. To be noted: for Apoptotic morphology: 72 hours treatment, Hoechst staining and Annexin-V binding; for EC50: Homo sapiens, 72 hrs exposure, Hoechst staining, read-out: effective dose at which 50% of cells were apoptotic (ED50). Here is the method:
as §3, §5

In series [7] the test system is normal human fibroblasts (NHFs). In words: Apoptosis induction (Hoechst staining) in normal human fibroblasts. It is filed as cell-based. The method, then:
as §3
To evaluate the cytotoxic effects of the C-1 derivatives of 7-deoxypancratistatin, mitochondrial dehydrogenase activities were measured. […]
Nuclear morphology was visualized using a final concentration of 10 μM of Hoechst 33342 dye (Molecular Probes, Eugene, Oreg., USA). […] Apoptotic cells were expressed as a percentage of the total number of cells counted. Standard error was calculated from at least 3 separate experiments.

Series [8] has as its system non-cancerous peripheral blood mononuclear cells (ncPBMC). The series can be described thus: Apoptosis induction (Hoechst staining) in non-cancerous peripheral blood mononuclear cells. It is filed as cell-based, human. Conditions: peripheral blood mononuclear cells from healthy volunteers.
Text: Peripheral blood was obtained from healthy non-smoking volunteers aged 25-50 years upon written and informed consent (University of Windsor REB #04-147). Whole blood samples were collected in BD Vacutainer™ Cell Preparation Tube and mononuclear cells were separated by density gradient centrifugation. The isolated cells were maintained in RPMI 1640 media supplemented and maintained as was the Jurkat culture.
as §4, §5

Converted amounts (≈) assume the structure as drawn. “Also recorded” adds a separate entry of the source. A value given as a limit tells only on which side of the number the result lay.

As usually defined, the melting point is the temperature of the solid-liquid transition. `COC(=O)[C@H]1[C@H](O)[C@@H](O)[C@@H](O)[C@@H]2NC(=O)c3cc4c(cc3[C@H]21)OCO4` showed a melting point of over 200 °C.
Broadly, the IC50 is the concentration needed to halve the response being measured. As to `O=C1N[C@H]2[C@H](O)[C@H](O)[C@@H](O)[C@H](O)[C@@H]2c2cc3c(c(O)c21)OCO3` [Compound 1, pancratistatin], the IC50 stood at 0.039 µg/mL (≈ 0.12 µM) in the series on leukemia P388; 0.028 µg/mL (≈ 0.0861 µM) in series [1]; 0.032 µg/mL (≈ 0.0984 µM) in [2]; 0.017 µg/mL (≈ 0.0523 µM) in the series with CNS SF-268; 0.048 µg/mL (≈ 0.148 µM) in [3]; 0.062 µg/mL (≈ 0.191 µM) in the series with colon KM20L2. Besides, the half-maximal inhibitory concentration (IC50) in series [4] is 0.016 µg/mL (≈ 0.0492 µM); in series [5], 0.163 µg/mL (≈ 0.501 µM); in series [6], 0.163 µg/mL (≈ 0.501 µM).
With `O=C1N[C@H]2[C@H](O)[C@H](O)[C@@H](O)[C@H](O)[C@@H]2c2cc3c(cc21)OCO3` [Compound 4, 7-deoxypancratistatin], the IC50 with leukemia P388 was found to be 0.44 µg/mL (≈ 1.42 µM); in [3] it was 0.29 µg/mL (≈ 0.938 µM); in the series with colon KM20L2 it was 0.22 µg/mL (≈ 0.711 µM).
As for `CC(=O)OC[C@H]1[C@H](O)[C@@H](O)[C@@H](O)[C@@H]2NC(=O)c3cc4c(cc3[C@@H]12)OCO4` [I(c), ((1S,2S,3R,4S,4aR,11bR)-2,3,4-trihydroxy-6-oxo-1,2,3,4,4a,5,6,11b-octahydro-[1,3]dioxolo[4,5-j]phenanthridin-1-yl)methyl acetate], the melting point was over 200 °C. The IC50 in series [1] was determined as 0.11 µg/mL. In addition, the IC50 in [2] turned out to be 0.29 µg/mL. Also, the IC50 in series [3] is 0.11 µg/mL. Further, the IC50 in series [4] was 0.37 µg/mL. Further, the IC50 in series [5] came to 0.183 µg/mL. For the same molecule, the IC50 in series [6] was found to be 0.183 µg/mL. In addition, in the series with Jurkat cells, the Apoptotic morphology result was “Apoptotic morphology was observed” and the EC50 stood at 0.5 µM. In addition, in the series on SH-SY5Y cells, the Apoptotic morphology entry is “Apoptotic morphology was observed” and the EC50 amounted to 0.5 µM. For the same molecule, the “induction of apoptosis in non-cancerous cells” value in [7] is recorded as “did not induce apoptosis; also recorded: does not induce apoptosis”. In addition, the “induction of apoptosis in non-cancerous cells” value in series [8] was “did not induce apoptosis; also recorded: does not induce apoptosis”.
`O=C1N[C@H]2[C@H](O)[C@H](O)[C@@H](O)[C@H](CO)[C@@H]2c2cc3c(cc21)OCO3` [I(d), (1S,2S,3R,4S,4aR,11bR)-2,3,4-trihydroxy-1-(hydroxymethyl)-1,2,3,4,4a, 5-hexahydro-[1,3]dioxolo[4,5-j]phenanthridin-6(11bH)-one] showed a melting point of over 200 °C. The IC50 in [1] came out at 0.19 µg/mL (≈ 0.588 µM). For the same molecule, the 50% inhibitory concentration (IC50) in series [2] stood at 0.65 µg/mL (≈ 2.01 µM). Further, the IC50 in series [3] was 0.09 µg/mL (≈ 0.278 µM). Further, the IC50 in series [4] worked out at 0.26 µg/mL (≈ 0.804 µM). The IC50 in series [5] stood at 1.61 µg/mL (≈ 5 µM). For the same molecule, the IC50 in [6] was determined as 1.61 µg/mL (≈ 5 µM). In the series with Jurkat cells, the Apoptotic morphology result was “Apoptotic morphology was observed” and the EC50 is 1 µM. Moreover, in the series on SH-SY5Y cells, the Apoptotic morphology entry is on record as “Apoptotic morphology was observed” and the EC50 is 10 µM.
